According to US11492361B2, “Compounds useful in HIV therapy” (GlaxoSmithKline Intellectual Property Development Limited, priority 2018, dated 2022):
Where two headings read alike, the source gives them in different places.

Assays:
[1] = tested on: p100/p52; conditions: background statement, primary cells; cited from earlier work
[2] = tested on: Jurkat HIV-luciferase clones; conditions: background statement; cited from earlier work
[3] = tested on: p100/p52; assay: p100/p52 Western blot (WB) assay; type: cell-based, human; conditions: PBMC cells from healthy donors, 24 hrs, read-out: p100/p52 Western Blot (WB) EC50
Method: Cell cultures were set up to evaluate several SMACm compounds. Frozen PBMC cells from healthy donors were thawed and plated in 2 ml deepwell plates at 2×10^6 cells/ml. Serial dilutions of each compound was carried out as a 7 fold 1:6 dilution with the starting final dose of 1000 nM. Cells were then combined with compound and place at 37° for 24 hrs. The following day cells were pelleted and placed at −80 until lysis.
In preparation for cell lysis, the frozen cell pellets and an aliquot of NP40 Cell Lysis Buffer (Invitrogen, Part #FNN0021), as well as an aliquot of 10× Protease Inhibitor Cocktail (Sigma, Part #P-2714) are thawed on ice. Once thawed, the complete lysis buffer is prepared by adding 10% final volume PI cocktail to the NP40 buffer and then adding in sufficient volume of 0.1 M PMSF (Sigma, Part #93482) and 1 M DTT (Sigma, Part #43816) to create a final concentration of 1 mM each in the complete lysis buffer. Cell lysis is then carried out by resuspending each cell pellet in 30 μL per 10^6 cells then incubating on ice for 30 minutes with vigorous vortexing every 10 minutes. The lysed cells are then centrifuged at 13K RPM for 10 minutes at 4° C. in a refrigerated microcentrifuge. The supernatants (lysates) are then transferred into new microcentrifuge tubes and either stored at −80° or utilized immediately for protein concentration and Western blot analysis.
Protein concentration for each lysate is determined using a detergent compatible Bradford assay (Pierce, Part #23246) following the manufacturer's microplate instructions.
Capillary Western analysis were performed using the ProteinSimple Jess System. A total of 1 ug of cell lysate was prepared according to the provided protocol supplied by ProteinSimple. The primary antibody for p100/p52 (Cell, Signaling #3017) is diluted 1:10 for use in the Jess system. The 12-230 kDa Jess Seperation Module capillary cartridges Separation Module (SM-W004) is used in conjunction with the Anti-Rabbit Secondary NIR conjugate (043-819). The Separation module includes prefilled plates that the samples, primary and secondary antibodies, as well as protein normalization reagent and diluents are loaded onto to perform separation and detection. Once the assay has run, the data is then analyzed utilizing the Compass software provided by ProteinSimple.
Alternatively to capillary electrophoresis, traditional immunoblot assays were carried out, 10 μg of cell lysate was loaded per well into 4-20% Tris-Glycine SDS-PAGE gels. Protein from the SDS-PAGE gels were transferred to Turbo Midi PVDF Transfer Packs (BioRad) using the “Mixed MW” protocol for one Midi Format Gel (constant 2.5 A up to 25V, for 7 minutes) of the Trans-Blot Turbo Transfer System (Bio-Rad) with premade Trans-Blot per the manufacturer's instructions. After transfer, PVDF membranes were blocked in 5% bovine serum albumin (BSA) in 1×TBS (BioRad) with 0.1% Tween-20 for 1 hour at room temperature with gentle rocking. Primary antibodies were added and incubated overnight at 4° C. (anti-p100/p52, Cell Signaling Technology #3017, 1:1000; anti-Actin-HRP conjugate, Abcam #49900, 1:30,000). Following primary staining, the membrane washed three times with 1× Tris Buffered Saline (TBS)+0.1% TWEEN® 20 for 10 minutes each wash. After washing, the membrane was incubated in 5% BSA in 1×TBS+0.1% TWEEN® 20 with the appropriate secondary antibody for 2 hours at room temperature. Following secondary stain the membrane was washed twice for 10 minutes with 1×TBS+0.1% TWEEN® 20 followed by a 10-minute wash with 1×TBS. The membrane was then patted dry with filter paper and an image was captured of the undeveloped membrane on the ChemiDoc MP Imaging System using Image Lab software (BioRad). Sufficient ECL reagent (GE Healthcare) was used to cover the membrane and a series of images were taken starting with 0.001 second and doubling to tripling the exposure time until the luminescence from the developed membrane saturated the image. […]

[4] = tested on: cell-associated HIV RNA (HIV gag RNA) in CD4+ T cells; conditions: background statement, primary cells / resting CD4+ T cells; cited from earlier work

Structure (SMILES) | p100-p52 conversion [1] | potency in cell line assays / Jurkat (HIV latency reversal) [2] | EC50 [3] [nM] | HIV caRNA induction [4] | EC50 ([3]; Homo sapiens) [nM]
CN[C@H](C)C(=O)N[C@@H]1CCS[C@@H]2CC(C)(C)C(C(=O)N[C@@H]3CCCc4ccccc43)N2C1=O (stereo partly shown) [SBI-0637142] | did not exhibit activity | potent | 100 to 1000 | did not exhibit activity | 
CN[C@H](C)C(=O)N[C@@H](C(=O)N1CCC[C@@H]1C(=O)N[C@@H]1c2ccccc2C[C@@H]1OCC#CC#CCO[C@@H]1Cc2ccccc2[C@H]1NC(=O)[C@H]1CCCN1C(=O)[C@H](NC(=O)[C@@H](C)NC)C1CCCCC1)C1CCCCC1 [AZD5582, reference compound] |  |  | 63 | increase in cell-associated HIV RNA expression | 
CC[C@H](NC(=O)[C@H](C)NC)C(=O)N1C[C@@H](O)C[C@H]1Cc1c(-c2[nH]c3cc(F)ccc3c2C[C@@H]2C[C@H](O)CN2C(=O)[C@H](CC)NC(=O)[C@H](C)NC)[nH]c2cc(F)ccc12 [Birinapant, reference compound] |  |  |  |  | 1000
